# Measurements as given in US11752125B2, “Anti-neuroinflammatory and protective compounds in Achillea fragrantissima” (THE STATE OF ISRAEL MINISTRY OF AGRICULTURE & RURAL …, priority 2013, dated 2023).
# Tests used:
# Type in all cases: cell-based, rat
# IL-1β = IL-1β secretion from LPS-stimulated microglial cells (ELISA); conditions: LPS 100 ng/mL, 24 h
# Procedure: (§1) Cultures of primary rat microglial cells were prepared from cerebral cortices of 1-2 day-old neonatal Wistar rats as described. Microglial cells were seeded at 24-well plastic plates at 1×10^5/well in RPMI-1640 containing 2% FBS, 2 mM glutamine, 100 U/mL penicillin, 100 µg/mL streptomycin, 1 mM sodium pyruvate, and 50 μM β-mercaptoethanol. Cells were cultured for 36 h before treatments. The research was conducted in accordance with the NIH guide for the care and use of laboratory animals, and was approved by the Institutional Animal Care and Use Committee of The Volcani Center, Agricultural Research Organization (IL-135/07, approval date Apr. 11, 2007). All efforts were made to minimize animal suffering, and to reduce the number of animals used.
# For IL-1β measurements, 3.5×10^4 cells/well were plated on a 24-well tissue culture plate. After 24 h of incubation in DMEM containing 10% FBS, cells were stimulated with LPS (100 ng/mL) and treated with different concentrations of achillolide A. Conditioned media were collected twenty four hours later, and were tested with a rat IL1β ELISA kit (Novus Biologicals; CO, USA), according to the manufacturer's instructions.
# 2. Plate microglial cells (3.5×10^4 cells/well) on a 24-well tissue culture plate, in DMEM containing 10% FBS, 2 mM glutamine, 100 U/ml penicillin and 100 micrograms/mL streptomycin;
# Microglial cells were treated with different concentrations of TTF, followed by stimulation with LPS (100 ng/mL). After 24 h, conditioned media were collected and tested for cytokine levels by ELISA. Cell viability was determined using the crystal violet assay (FIG. 9C). Values represent the means±SEM (n=4 for each treatment).
# Microglial cells were treated with 20 μg/mL of achillolide A, followed by stimulation with LPS (4.5 ng/mL). After 5 h the levels of the indicated transcripts were measured by quantitative real-time PCR and the relative quantity (RQ) of the different transcripts were determined. […] The results are expressed as percentages relative to LPS-stimulated cells. […]
# NO = NO (nitrite) production by LPS-activated microglial cells (Griess); conditions: LPS 4.5 ng/mL, 20 h
# Procedure: as §1
# For NO measurements, 1×10^5 microglial cells/well were plated in a 24-well tissue culture plate. Cells were stimulated with LPS (4.5 ng/mL) and concomitantly treated with achillolide A or a reference drug. NO levels in the culture medium were estimated with Griess reagent.
# 3. Activate microglial cells with lipopolysaccharide (LPS, 4.5 nanograms/mL);
# In FIG. 21 A, microglial cells were treated with different concentrations of achillolide A, dexamethasone or memantine (as reference drugs) and were concomitantly activated by LPS (4.5 ng/mL) for 20 h. Cell conditioned supernatants were collected, and the levels of NO were measured using Griess reaction. Cytotoxicity was measured using the LDH method (FIG. 21B). Values represent the mean±SEM (n=12 for each treatment). ** p<0.01; ***p<0.001 relative to cells that were treated to LPS only.
# glutamate = experiment: Glutamate secretion from LPS-activated microglial cells; conditions: LPS 100 ng/mL, 20 h
# Procedure: For glutamate measurements, 3.5×10^4 cells/well were plated on a 24-well tissue culture plate. After 24 h of incubation in DMEM containing 10% FBS, cells were stimulated with LPS (100 ng/mL) and treated with different concentrations of achillolide A. Conditioned media were collected twenty hours later, and were tested for glutamate levels using a colorimetric enzymatic assay kit (glutamate assay kit, BioVision, CA, USA) according to the manufacturer's instructions. 7. Measure the levels of glutamate using a colorimetric enzymatic assay kit (glutamate assay kit, BioVision, CA, USA) according to the manufacturer's instructions. Microglial cells were treated with the indicated concentrations of achillolide A, followed by stimulation with LPS (100 ng/mL). After 20 h, conditioned media were collected and tested for glutamate levels by a commercial kit. Values represent the means±SEM (n=4 for each treatment). ** p<0.01; *** p<0.001, compared to LPS-stimulated cells.
# microglial cells = experiment: Cellular antioxidant activity (ABAP peroxyl radicals) in microglial cells; conditions: ABAP 0.6 mM, dexamethasone at nanomolar concentrations
# Procedure: Intracellular ROS production was detected using the non-fluorescent cell permeating compound, 2′7′-dichlorofluorescein diacetate (DCF-DA). DCF-DA is hydrolyzed by intracellular esterases and then oxidized by ROS to a fluorescent compound 2′-7′-DCF. Peroxyl radicals are generated by thermolysis of 2,2′-Azobis(amidinopropane) (ABAP) at physiological temperature. ABAP decomposes at approximately 1.36×10^−6s^−1 at 37° C., producing at most 1×10^12 radicals/mL/s. Microglial cells (130,000 cells/well) were plated in DMEM containing 2% FBS, 8.4 mM HEPES, 2 mM glutamine, 100 U/mL penicillin and 100 μg/mL streptomycin, onto 24 wells plates. In order to measure the ability of achillolide A to enter the cells and prevent the formation of DCF by ABAP-generated peroxyl radicals, cells were incubated for 1 h with achillolide A. Then cells were preloaded with DCF-DA for 30 min, washed twice with PBS, and ABAP (0.6 mM final concentration) was then added. The fluorescence, which indicates ROS levels, was measured in a plate reader with excitation at 485 nm and emission at 520 nm.
# Cells were incubated for 1 h with different concentrations of achillolide A. Then, the cells were pre-loaded with DCF-DA for 30 min and washed. ABAP (0.6 mM) was added to the culture and ROS levels were measured at the indicated time points. […]
smiles,measurement,setting,value
"C[C@@H]1C[C@H]2[C@@H]3CCC4=CC(=O)C=C[C@]4(C)[C@@]3(F)[C@@H](O)C[C@]2(C)[C@@]1(O)C(=O)CO [dexamethasone, reference compound]",inhibition of IL-1β secretion,IL-1β,85%
same,inhibition of NO produced by the activated cells,NO,90%
same,inhibition of the LPS-induced levels of secreted glutamate,glutamate,90%
same,inhibition of the ABAP-induced increase in ROS fluorescence,microglial cells,75%
